From patent US9598384B2, “3-(2-amino-ethyl)-alkylidene)-thiazolidine-2,4-dione and 1-(2-amino-ethyl)-alkylidene-1,3-dihydro-indol-2-one derivatives as selective sphingosine kinase 2 inhibitors” (VIRGINIA COMMONWEALTH UNIVERSITY, priority 2012, dated 2017)
Values joined by “and” are separate entries in the source; they are usually repeats but may differ in a detail not shown here. Identical values can stand only once. “Also recorded” adds a separate entry of the source.

What was measured:
SphK2 = target: T1, SphK2 (Homo sapiens, UniProt Q9NRA0); experiment: SphK2 activity assay (sphingosine substrate, with kinetic study); format: biochemical
T1 sequence (Q9NRA0 1-654): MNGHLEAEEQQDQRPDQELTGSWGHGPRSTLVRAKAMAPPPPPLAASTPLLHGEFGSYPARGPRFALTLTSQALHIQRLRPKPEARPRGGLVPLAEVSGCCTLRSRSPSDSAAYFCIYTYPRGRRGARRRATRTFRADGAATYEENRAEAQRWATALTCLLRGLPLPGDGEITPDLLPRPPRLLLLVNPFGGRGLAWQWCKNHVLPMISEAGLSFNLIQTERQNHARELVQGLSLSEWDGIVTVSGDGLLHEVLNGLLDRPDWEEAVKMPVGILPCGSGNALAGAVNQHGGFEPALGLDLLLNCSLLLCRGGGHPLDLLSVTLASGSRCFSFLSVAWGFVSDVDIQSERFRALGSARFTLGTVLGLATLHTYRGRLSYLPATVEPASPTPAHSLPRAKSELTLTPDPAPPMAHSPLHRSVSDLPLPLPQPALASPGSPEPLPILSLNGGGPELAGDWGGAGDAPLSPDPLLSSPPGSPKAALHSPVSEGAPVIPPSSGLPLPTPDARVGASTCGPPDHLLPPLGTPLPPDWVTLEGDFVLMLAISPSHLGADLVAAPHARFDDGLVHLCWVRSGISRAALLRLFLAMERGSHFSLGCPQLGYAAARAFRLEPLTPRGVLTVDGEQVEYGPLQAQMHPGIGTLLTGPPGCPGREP
Protocol: A) SphK1 and SphK2 activities were measured with 5 μM sphingosine in the absence or presence of the indicated concentrations of K145 or 10 μM DMS. […] Data are expressed as percentage of control activity averaged from 2 independent experiments. Data are expressed as mean value±SEM.
SphK2 was incubated with indicated compounds at 10 μM, then the activity of SphK2 was determined. The data shown here is a relative activity of SphK2 compared to control (no inhibitor, column labeled Sph in the Figure). […] “A” and “B” refer to different batches of a compound.
SphK2 was incubated with indicated compounds at 10 μM, then the activity of SphK2 was determined. The data shown here is a relative activity of SphK2 compared to control (no inhibitor).

[1] = test system: human leukemia U937 cells; experiment: Cell viability assay in human leukemia U937 cells; format: cell-based
Protocol: Cells were cultured at a density of 5×10^4 (U937) or 1×10^4 (PC-3, DU145, M12, HT29) cells per well in flat bottomed 96-well plates and treated with various concentrations of test compound at 37° C. (5% CO2). After 24 h, 20 μL of CellTiter 96® Aqueous One Solution Reagent (Promega, Madison, Wis.) was added to each well according to the manufacturer's instructions. After 1 hour, the cell viability was determined by measuring the absorbance at 490 nm using a micro-plate reader.

U937 cells [2] = experiment: Cell apoptosis assay, annexin V/PI flow cytometry; format: cell-based, human
Protocol: Apoptosis was measured by flow cytometry using annexin V/propidium iodide (PI) as staining reagent. […] The cells were then incubated with annexin V-fluorescein isothiocyanate (FITC) (BD PharMingen, San Diego, Calif.) and 5 μg/mL propidium iodide (PI), and incubated for 15 minutes at room temperature in the dark per the manufacturer's instructions. The samples were analyzed by flow cytometry using a Becton Dickinson FACScan (Becton Dickinson, San Jose, Calif.) within 1 hr to determine the percentage of cells displaying annexin V staining (early apoptosis) or both annexin V and PI staining (late apoptosis).

U937 xenograft = experiment: U937 xenografts in nude mice, i.p. administration; format: in vivo, BALB/c-nu mice; settings: 15 mg/kg daily i.p.
Protocol: D) Body weights of mice throughout treatment. Data are expressed as mean value±SD. *P<0.05 compared to control group.
Female nude mice (BALB/c-nu, n=7) were inoculated with 3×10^7 U937 cells subcutaneously in the right flank. After 7 days of implant of U937 cells, mice were treated daily with Vehicle (control), or Tamibarotene (15 mg/Kg, positive control), or Formula III (K145) (15 mg/Kg) by i.p. administration. Tumor size was measured every other day.

JC xenograft = experiment: JC xenografts in syngenic BALB/c mice, i.p.; format: in vivo
Protocol: FIG. 14A-E. K145 suppresses the growth of JC xenograft in BALB/c mice. BALB/c mice (n=8) with palpable JC xenograft were treated daily with vehicle or K145 (20 mg/kg and 35 mg/kg) for 15 days by i.p. injection.
Female BALB/c mice (n=12) were injected with 1×10^6 JC cells subcutaneously in the flank, and treatment with the compound produced as described in Example 15 i.e. 3-(2-aminoethyl)-5-[3-(4-butoxyphenyl)-propylidene]-thiazolidine-2,4-dione (Formula III-K145, 20 mg/kg and 35 mg/Kg dosage daily (i.p.) was started seven days after the tumor cell injection and stopped at day […]. Mice were sacrificed at 15 days treatment.

S1P = experiment: Cellular S1P level in U937 cells by ESI-MS/MS; format: cell-based, human; settings: 10 μM, 3 h
Protocol: (§1) FIG. 16A-E. K145 accumulates and suppresses the S1P level. A and B) U937 cells were treated with K145 at the indicated concentrations for 3 h and the levels of K145 and S1P were measured by ESI-MS/MS. C) HEK293 cells were treated with K145 (10 μM) for 2 h. Lipids were extracted and different chain length species of ceramide were determined by LC-ESI-MS/MS. Numbers indicate chain length followed by the number of double bonds in the fatty acid. Data are averages of triplicate determinations and are expressed as pmol lipid/10^6 cells. D) U937 cells were treated with or without K145 (10 μM) for 3 h and levels of C1P species were determined by ESI-MS/MS. E) U937 cells were treated with FTY720 (1 μM) in the absence or presence of indicated K145 for 3 h, then FTY720-P was measured by ESI-MS/MS. *P<0.05 compared to control.
(§2) Next we examined whether K145 affects cellular levels of S1P. […] Therefore, we further characterized K145 in U937 cells. […] This might be due to the fact that many enzymes such as SphK1, SphK2, S1P lyase, and S1P phosphatise, not just SphK2, are involved in the regulation of cellular S1P. […] To further confirm its SphK2 selectivity, we then tested the effects of K145 on the phosphorylation of FTY720, a SphK2 specific substrate.

[3] = test system: ceramide-1-phosphate (C1P); experiment: C1P species in U937 cells by ESI-MS/MS; format: cell-based, human; settings: 10 μM, 3 h
Protocol: as §1, §2

U937 cells [4] = experiment: Uptake of K145 by U937 cells, ESI-MS/MS; format: in vitro ADME, human; settings: 3 h, concentration dependent
Protocol: as §1, §2

Question: What does the source list for `CCCCOc1ccc(CC/C=C2\SC(=O)N(CCN)C2=O)cc1` [K145, 3-(2-aminoethyl)-5-[3-(4-butoxyl-phenyl)-propylidene]-thiazolidine-2,4-dione]?
Answer: Ki (SphK2; Lineweaver-Burk analysis, increasing concentrations of sphingosine): 6.4 ± 0.7 µM; IC50 (SphK2; recombinant SphK2, 5 μM sphingosine): 5 µM and 4.3 µM; inhibition of SphK2 activity (in words) (SphK2; relative activity vs no inhibitor, compounds at 10 μM (FIGS. 1, 3, 5)): significantly inhibit SphK2; also recorded: inhibits SphK2; type of SphK2 inhibition (SphK2; with the substrate sphingosine): competitive inhibitor; IC50 for proliferation of tested cancer cells (in words) ([1]; FIG. 8, U937 cells, 24 h): single digit micromolar; inhibition of growth/proliferation of U937 cells (in words) ([1]; human leukemia U937 cells): dose-dependently inhibits the growth; induction of apoptosis in U937 cells (U937 cells [2]; 5 μM, after 18 hrs): significantly induced apoptosis; induction of apoptosis in U937 cells (U937 cells [2]; 10 μM, 4 hrs treatment): significantly induced apoptosis; induction of apoptosis in U937 cells (U937 cells [2]; varying concentrations and intervals): significantly and dose-dependently induced apoptosis; TGI (tumor growth inhibition) (U937 xenograft; 17 days): 44.2%; body weights of mice (U937 xenograft; compared with vehicle): remained the same; S1P level in JC tumor samples (JC xenograft; 20 mg/kg group vs vehicle, ESI-MS/MS): suppressed; K145 level in JC tumor samples (JC xenograft; 20 mg/kg group, ESI-MS/MS): detected; p-ERK and p-Akt levels in tumor samples (JC xenograft; 20 mg/kg vs vehicle, Western blot): decreased; changes in body weights and major organs (heart, lung, liver, kidney) (JC xenograft; 20 and 35 mg/kg i.p., 15 days): did not observe significant changes; tumor weights vs vehicle-treated mice (JC xenograft; 20 and 35 mg/kg i.p., 15 days): significantly less; mean volume of JC tumors smaller than in vehicle-treated mice (JC xenograft; both doses (20 and 35 mg/kg daily i.p.), after 15 days): > 50%; total cellular S1P (S1P): caused a decrease; level of ceramide-1-phosphate (C1P) [3]: not significantly affected; uptake by U937 cells (U937 cells [4]): readily taken up
